Assay results reported in ChEMBL document CHEMBL1132957, “Design of potent dicyclic (4-10/5-8) gonadotropin releasing hormone (GnRH) antagonists” (J Med Chem, 2000).
Values belong to the compound of their own block, whether it stands above or below them. Activity calls are given as the source filed them. The calls are words filed in the database; no cut-off is given here. Positions of bridges follow the written chain, without caps; N, C: chain ends. Non-standard residues stand in square brackets, D forms with d. Residues, ends and D or L forms follow the SMILES beside them. dPhe(4-Cl) = N[C@H](Cc1ccc(Cl)cc1)C(=O)O; d2Nal = N[C@H](Cc1ccc2ccccc2c1)C(=O)O; Dap = NC[C@H](N)C(=O)O

What was measured:
[1] = biological target: T1, Gonadotropin-releasing hormone receptor (Rattus norvegicus, UniProt P30969); test: Competitive radioligand binding assay, in human HEK293 cells stably transfected with the rat Gonadotropin-releasing hormone receptor; assay type: cell-based
T1 sequence (P30969 whole entry): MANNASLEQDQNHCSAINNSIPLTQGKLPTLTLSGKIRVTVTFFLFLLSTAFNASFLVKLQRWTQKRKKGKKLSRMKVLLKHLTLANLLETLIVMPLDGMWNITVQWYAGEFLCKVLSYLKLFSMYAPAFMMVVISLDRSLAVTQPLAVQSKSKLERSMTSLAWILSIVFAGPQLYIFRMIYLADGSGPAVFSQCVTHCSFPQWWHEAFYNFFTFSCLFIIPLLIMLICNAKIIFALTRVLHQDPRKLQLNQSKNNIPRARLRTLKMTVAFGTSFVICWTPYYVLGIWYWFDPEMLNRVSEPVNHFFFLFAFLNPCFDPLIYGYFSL

[2] = tested on: Rattus norvegicus; test: Evaluated for the ovulation effects in the rat by administering the drug at the doses (2.5 ug); 1/8; assay type: functional, organism-based
[3] = tested on: Rattus norvegicus; test: Evaluated for the ovulation effects in the rat by administering the drug at the doses (1.0 ug); 2/11; assay type: functional, organism-based
[4] = tested on: Rattus norvegicus; test: Evaluated for the ovulation effects in the rat by administering the drug at the doses (0.5 ug); 5/5; assay type: functional, organism-based
[5] = tested on: Rattus norvegicus; test: Evaluated for the ovulation effects in the rat by administering the drug at the doses (5.0 ug); 4/7; assay type: functional, organism-based
[6] = tested on: Rattus norvegicus; test: Evaluated for the ovulation effects in the rat by administering the drug at the doses (10 ug); 4/9; assay type: functional, organism-based
[7] = tested on: Rattus norvegicus; test: Evaluated for the ovulation effects in the rat by administering the drug at the doses (5 ug); 1/8; assay type: functional, organism-based
[8] = tested on: Rattus norvegicus; test: Evaluated for the ovulation effects in the rat by administering the drug at the doses (1.0 ug); 11/15; assay type: functional, organism-based
[9] = tested on: Rattus norvegicus; test: Evaluated for the ovulation effects in the rat by administering the drug at the doses (2.5 ug); 3/10; assay type: functional, organism-based
[10] = tested on: Rattus norvegicus; test: Evaluated for the ovulation effects in the rat by administering the drug at the doses (10 ug); 0/9; assay type: functional, organism-based
[11] = tested on: Rattus norvegicus; test: Evaluated for the ovulation effects in the rat by administering the drug at the doses (5 ug); 3/20; assay type: functional, organism-based
[12] = tested on: Rattus norvegicus; test: Evaluated for the ovulation effects in the rat by administering the drug at the doses (10 ug); 0/10; assay type: functional, organism-based
[13] = tested on: Rattus norvegicus; test: Evaluated for the ovulation effects in the rat by administering the drug at the doses (2.5 ug); 9/10; assay type: functional, organism-based
[14] = tested on: Rattus norvegicus; test: Evaluated for the ovulation effects in the rat by administering the drug at the doses (2.5 ug); 2/8
[15] = tested on: Rattus norvegicus; test: Evaluated for the ovulation effects in the rat by administering the drug at the doses (5.0 ug); 0/6; assay type: functional, organism-based

Ki ([1]; hek293): 0.84 nM
Structure (SMILES): CC[C@H](NC(C)=O)C(=O)N[C@@H](Cc1ccc(Cl)cc1)C(=O)N[C@@H](Cc1c[nH]c2ccccc12)C(=O)N[C@@H](CC(=O)O)C(=O)N[C@@H]1CCC(=O)NCCCC[C@@H](C(=O)N2CCC[C@@H]2C(=O)N[C@@H](C)C(N)=O)NC(=O)[C@H](CC(C)C)NC(=O)[C@@H](CCCNC(=N)N)NC1=O (stereo in doubt; 13)

Ki [1]: 0.2 nM
Structure (SMILES): CC(=O)N[C@H](Cc1ccc2ccccc2c1)C(=O)N[C@H](Cc1ccc(Cl)cc1)C(=O)N[C@H](Cc1cccnc1)C(=O)N[C@H]1CC(=O)NC[C@@H](C(N)=O)NC(=O)[C@@H]2CCCN2C(=O)[C@@H]2CCNC(=O)[C@H](CCCN=C(N)N)NC(=O)CC[C@H](NC1=O)C(=O)N[C@H](CCCN=C(N)N)C(=O)N[C@@H](CC(C)C)C(=O)N2
Activity [2]: Active | Activity [3]: Active | Activity [4]: inactive

Ki ([1]; hek293): 1.3 nM
Structure (SMILES): CC(=O)N[C@H](Cc1ccc2ccccc2c1)C(=O)N[C@H](Cc1ccc(F)cc1)C(=O)N[C@H](Cc1c[nH]c2ccccc12)C(=O)N[C@H]1CC(=O)NC(C(N)=O)NC(=O)[C@@H]2CCCN2C(=O)[C@H](CCCNC(=N)N)NC(=O)[C@H](CC(C)C)NC(=O)[C@@H](CCCNC(=N)N)NC(=O)[C@H](Cc2ccc(O)cc2)NC1=O (stereo partly drawn)

Ki [1]: 0.37 nM
Structure (SMILES): CC(=O)N[C@H](Cc1ccc2ccccc2c1)C(=O)N[C@H](Cc1ccc(Cl)cc1)C(=O)N[C@H](Cc1cccnc1)C(=O)N[C@H]1CC(=O)NC[C@@H](C(N)=O)NC(=O)[C@@H]2CCCN2C(=O)[C@@H]2CCNC(=O)CCNC(=O)C[C@H](NC1=O)C(=O)N[C@H](CCCN=C(N)N)C(=O)N[C@@H](CC(C)C)C(=O)N2
Activity [5]: Weak activity

Ki [1]: 1.2 nM
Structure (SMILES): CC(=O)N[C@H](Cc1ccc2ccccc2c1)C(=O)N[C@H](Cc1ccc(Cl)cc1)C(=O)N[C@H](Cc1c[nH]c2ccccc12)C(=O)N[C@H]1CC(=O)NC[C@@H](C(N)=O)NC(=O)[C@@H]2CCCN2C(=O)[C@@H]2CCCCNC(=O)CC[C@H](NC1=O)C(=O)N[C@H](Cc1ccc3ccccc3c1)C(=O)N[C@@H](CC(C)C)C(=O)N2

Ki [1]: 0.2 nM
Structure (SMILES): CC(=O)N[C@H](Cc1ccc2ccccc2c1)C(=O)N[C@H](Cc1ccc(Cl)cc1)C(=O)N[C@H](Cc1cccnc1)C(=O)N[C@H]1CC(=O)NC[C@@H](C(N)=O)NC(=O)[C@@H]2CCCN2C(=O)[C@@H]2CCNC(=O)CN(C)C(=O)CC[C@H](NC1=O)C(=O)N[C@H](CCCN=C(N)N)C(=O)N[C@@H](CC(C)C)C(=O)N2
Activity [6]: Weak activity

Ki [1]: 0.23 nM
Structure (SMILES): CC(=O)N[C@H](Cc1ccc2ccccc2c1)C(=O)N[C@H](Cc1ccc(Cl)cc1)C(=O)N[C@H](Cc1cccnc1)C(=O)N[C@H]1CC(=O)NC[C@@H](C(N)=O)NC(=O)[C@@H]2CCCN2C(=O)[C@@H]2CCNC(=O)[C@H](Cc3ccccc3)NC(=O)CC[C@H](NC1=O)C(=O)N[C@H](CCCN=C(N)N)C(=O)N[C@@H](CC(C)C)C(=O)N2
Activity [7]: Active | Activity [8]: inactive | Activity [9]: Weak activity | Activity [10]: Active

Ki [1]: 0.32 nM
Structure (SMILES): CC(=O)N[C@H](Cc1ccc2ccccc2c1)C(=O)N[C@H](Cc1ccc(Cl)cc1)C(=O)N[C@H](Cc1c[nH]c2ccccc12)C(=O)N[C@H]1CC(=O)NC[C@@H](C(N)=O)NC(=O)[C@@H]2CCCN2C(=O)[C@@H]2CCCCNC(=O)CC[C@H](NC1=O)C(=O)N[C@H](CCCN=C(N)N)C(=O)N[C@@H](CC(C)C)C(=O)N2 (Ac-[d2Nal][dPhe(4-Cl)][dW]DE[dR]LKP[Dap]-NH2; lactam 4-10, 5-8)
Activity [11]: Weak activity | Activity [12]: Active | Activity [13]: inactive

Ki [1]: 0.23 nM
Structure (SMILES): CC(=O)N[C@H](Cc1ccc2ccccc2c1)C(=O)N[C@H](Cc1ccc(Cl)cc1)C(=O)N[C@H](Cc1cccnc1)C(=O)N[C@H]1CC(=O)NC[C@@H](C(N)=O)NC(=O)[C@@H]2CCCN2C(=O)[C@@H]2CCNC(=O)[C@H](Cc3ccc(Cl)cc3)NC(=O)CC[C@H](NC1=O)C(=O)N[C@H](CCCN=C(N)N)C(=O)N[C@@H](CC(C)C)C(=O)N2
Activity [14]: Weak activity | Activity [15]: Active
